Literature values in US20100317664A1, “METHODS OF AFFECTING GASTROINTESTINAL TRANSIT AND GASTRIC EMPTYING, AND COMPOUNDS USEFUL THEREIN” (priority 2007, published 2010).

Columns and labels:
rats = conditions: parenteral injection to rats

constipation (humans; oral administration, high doses (3000 mg/day), humans): causes constipation
SMILES: N[C@@H](Cc1ccc(Cl)cc1)C(=O)O (racemic) [p-chlorophenylalanine]
gastrointestinal motility (rats): decreased their gastrointestinal motility | adverse psychological effects (humans; in vivo): adverse psychological effects, such as dizziness, nausea and uneasiness | entry into the central nervous system (humans; in vivo): readily gets into the central nervous system
